A short description of the series: physchem. The format is physicochemical. The procedure: Measurement of Log P values as provided herein was performed according to EEC directive 79/831 Annex V.A8 by HPLC (High Performance Liquid Chromatography) on reversed phase columns with the following methods: […] If more than one Log P value is available within the same method, all the values are given and separated by “+”. Calibration was done with straight-chain alkan2-ones (with 3 to 16 carbon atoms) with known Log P values (measurement of Log P values using retention times with linear interpolation between successive alkanones). Lambda-max-values were determined using UV-spectra from 200 nm to 400 nm and the peak values of the chromatographic signals

Marks after values point to notes of the source that are not given here.

Take `CCc1ccc(C(F)(F)CNC(=O)c2cc(CC)ncc2Oc2cccc(C3CC3)c2F)c(Cl)c1` [Compound I-187]: the LogP was 5.45^[a].

As for `O=C(NCC(F)(F)c1ccc(Br)cc1Cl)c1cc(Cl)ncc1Br` [Compound 3-004], the LogP was 3.68^[a].

Regarding `Cc1cccc(Oc2cnc(Cl)cc2C(=O)NCC(F)(F)c2ccc(Br)cc2Cl)c1` [Compound I-145], the LogP was 5.08^[a].

In the case of `O=C(NCC(F)(F)c1ccc(Br)cc1Cl)c1cc(Cl)ncc1Oc1cccc(Cl)c1` [Compound I-241], the LogP was 4.95^[a].

Consider `CCOC(=O)c1ccc(C(F)(F)CNC(=O)c2cc(Cl)ncc2Oc2cccc(C(F)F)c2)c(Cl)c1` [Compound I-120], for which the LogP was 4.47^[a].

As for `Cc1ccc(CCNC(=O)c2cc(Cl)nc(C#N)c2Oc2cccc(C(F)(F)F)c2)c(C)c1` [Compound I-225], the LogP is 4.58^[a].

On to `CNc1ncc(Oc2cccc(C(F)(F)F)c2)c(C(=O)NCC(F)(F)c2ccc(C)cc2C)c1I` [Compound I-218], for which the LogP is 4.55^[a].

For the compound `Cc1ccc(CCNC(=O)c2cc(Cl)ncc2Oc2ccc(Cl)c(Cl)c2)c(C)c1` [Compound I-250], the LogP is 5.08^[a].

On to `Cc1ccc(CCNC(=O)c2ccncc2Oc2cccc(C(F)(F)F)c2)c(C)c1` [Compound I-184], for which the LogP is 3.11^[a].

In the case of `CCc1ccc(C(F)(F)CNC(=O)c2cc(Cl)ncc2Oc2cccc(C3CC3)c2)c(Cl)c1` [Compound I-185], the LogP was 5.49^[a].

As for `C=Cc1ccc(C(F)(F)CNC(=O)c2cc(Cl)ncc2Oc2cccc(C(F)F)c2)c(Cl)c1` [Compound I-123], the LogP is 4.47^[a].

With `O=C(O)c1cc(Cl)nc(F)c1Oc1cccc(C(F)(F)F)c1` [Compound 1-014, 6-chloro-2-fluoro-3-[3-(trifluoromethyl)phenoxy]pyridine-4-carboxylic acid], the chromatographic logP came to 2.95.

Turning to `Cc1ccc(C(F)(F)CNC(=O)c2c(Oc3cccc(C(F)(F)F)c3)cnc(Oc3cccc(C(F)(F)F)c3)c2-n2cccn2)c(C)c1` [Compound I-169], the LogP is 5.53^[a].

On to `COc1c(Cl)ncc(Br)c1C(=O)NCC(F)(F)c1ccc(C)cc1C` [Compound 3-007], for which the LogP is 3.75^[a].

As to `Cc1ccc(CCNC(=O)c2cc(Cl)ncc2Oc2ccc(C(F)(F)F)c(Cl)c2)c(C)c1` [Compound I-111], the LogP is 4.48^[a].

For `Cc1ccc(CCNC(=O)c2cc(Cl)ncc2Oc2cccc(Cl)c2F)c(C)c1` [Compound I-128], the LogP was 4.71^[a].

As to `Cc1cc(C(=O)NCC(F)c2ccc(Cl)cc2Cl)c(Oc2cccc(C3CC3)c2)cn1` (centres unmarked) [Compound I-220], the LogP was 4.44^[a].

Regarding `Cc1ccc(C(F)(F)CNC(=O)c2cc(Cl)ncc2Oc2cccc(C(F)(F)F)c2I)c(C)c1` [Compound I-222], the LogP is 5.08^[a].

With `Cc1ccc(CCNC(=O)c2cc(C3CC3)ncc2Oc2cccc(C3CC3)c2)c(C)c1` [Compound I-186], the LogP is 5.22^[a].

As to `C#Cc1ccc(C(F)(F)CNC(=O)c2cc(Cl)ncc2Oc2cccc(C(F)(F)F)c2)c(Cl)c1` [Compound I-029], the LogP was 4.53^[a].

On to `Cc1ccc(CCNC(=O)c2cc(Cl)ncc2Oc2ccc(Cl)c(C(F)(F)F)c2)c(C)c1` [Compound I-254], for which the LogP was 5.09^[a].

Consider `O=C(NCCc1ncc(Cl)cn1)c1cc(Cl)ncc1Oc1cccc(C(F)(F)F)c1` [Compound I-099], for which the LogP was 3.34^[a].

For the compound `O=C(NCCc1ccc2[nH]ccc2c1)c1cc(Cl)ncc1Oc1cccc(C(F)(F)F)c1` [Compound I-100], the LogP is 3.71^[a].

In the case of `O=C(NCC(F)c1ccc(Br)cc1Cl)c1cc(Cl)ncc1Oc1cccc(C(F)(F)F)c1` (centres unmarked) [Compound I-012], the LogP is 4.85^[a].

Take `Cc1ccc(CCNC(=O)c2cc(Cl)ncc2Oc2ccccc2)c(C)c1` [Compound I-133]: the LogP was 4.41^[a].

As for `CC(NC(=O)c1cc(Cl)ncc1Oc1cccc(C(F)(F)F)c1)c1ccc(Cl)s1` (centres unmarked) [Compound I-103], the LogP was 4.47^[a].

As to `Cc1ccc(CCNC(=O)c2cc(Cl)ncc2Oc2ccc(OC(F)(F)F)cc2)c(C)c1` [Compound I-165], the LogP is 4.97^[a].

Turning to `O=C(NCC(F)(F)c1ccc(Br)cc1Cl)c1cc(Cl)ncc1Oc1cccc(C(F)F)c1` [Compound I-249], the LogP was 4.54^[a].

As to `COc1c(Cl)ncc(Oc2cccc(C(F)(F)F)c2)c1C(=O)NCC(F)(F)c1ccc(C)cc1C` [Compound I-199], the LogP is 4.74^[a].

With `Cc1ccc(CCNC(=O)c2cc(Cl)ncc2Oc2cccc(C=O)c2)c(C)c1` [Compound I-228], the LogP was 3.79^[a].

On to `O=C(NCC(F)c1ccc(Cl)cc1Cl)c1cc(Cl)nc(F)c1Oc1cccc(C(F)(F)F)c1` (racemic) [Compound I-091], for which the LogP is 5.08^[a].

Consider `Cc1ccc(C(F)(F)CNC(=O)c2cc(Cl)ncc2Br)c(C)c1` [Compound 3-003], for which the LogP was 3.57^[a].

Consider `Cc1ccc(C(F)(F)CNC(=O)c2cc(Cl)ncc2Oc2cccc(C(F)(F)F)c2C)c(C)c1` [Compound I-023], for which the LogP is 5.14^[a].

With `O=C(NCC(F)(F)c1ccc(Cl)cc1)c1cc(Cl)ncc1Oc1cccc(C(F)(F)F)c1` [Compound I-011], the LogP is 4.41^[a].

`Cc1ccc(C(F)(F)CNC(=O)c2c(Br)cnc(Cl)c2F)c(C)c1` [Compound 3-005, 5-bromo-2-chloro-N-[2-(2,4-dimethylphenyl)-2,2-difluoro-ethyl]-3-fluoro-pyridine-4-carboxamide] gave a chromatographic logP of 3.81.

As for `C#Cc1c(Cl)ncc(Oc2cccc(C(F)(F)F)c2)c1C(=O)NCC(F)(F)c1ccc(C)cc1C` [Compound I-179], the LogP was 5.74^[a].

Regarding `Cc1ccc(CCNC(=O)c2cc(C)ncc2Oc2cccc(C(F)F)c2)c(C)c1` [Compound I-183], the LogP is 3.56^[a].

Turning to `CC(C)Oc1ccc(CCNC(=O)c2cc(Cl)ncc2Oc2cccc(C(F)(F)F)c2)cn1` [Compound I-106], the LogP was 4.08^[a].

As to `Cc1ccc(CCNC(=O)c2cc(Cl)ncc2Oc2cccc(C(F)(F)F)c2)o1` [Compound I-095], the LogP was 4.05^[a].

In the case of `Cc1ccc(CCNC(=O)c2cc(Cl)ncc2Oc2c(F)ccc(C)c2F)c(C)c1` [Compound I-264], the LogP is 4.76^[a].

Regarding `Cc1ccc(CCNC(=O)c2cc(Cl)ncc2Oc2cccc(C=O)c2F)c(C)c1` [Compound I-127], the LogP is 3.85^[a].

For `Cc1ccc(CCNC(=O)c2cc(Cl)ncc2Oc2cccc(C#N)c2F)c(C)c1` [Compound I-126], the LogP is 3.91^[a].

As for `Cn1cc(-c2ccc(C(F)(F)CNC(=O)c3cc(Cl)ncc3Oc3cccc(C(F)F)c3)c(Cl)c2)cn1` [Compound I-117], the LogP is 3.64^[a].

Turning to `Cc1ccc(C(F)(F)CNC(=O)c2ccncc2Oc2cccc(C(F)(F)F)c2)c(C)c1` [Compound I-015], the LogP was 3.84^[a].

In the case of `Cc1ccc(C(F)(F)CNC(=O)c2cc(C)ncc2Oc2cccc(C3CC3)c2F)c(Cl)c1` [Compound I-089], the LogP was 4.47^[a].

As for `Cc1cc(C(=O)NCC(F)c2ccc(Cl)cc2C)c(Oc2cccc(C3CC3)c2F)cn1` (centres unmarked) [Compound I-205], the LogP was 4.37^[a].

On to `O=C(NCC(F)(F)c1ccc(Br)cc1Cl)c1cc(Cl)ncc1Oc1cccc(C(F)(F)F)c1` [Compound I-001], for which the LogP is 5.00^[a].

With `CCc1cc(C(=O)NCC(F)(F)c2ccc(C)cc2C)c(Oc2cccc(C(F)(F)F)c2)cn1` [Compound I-026], the LogP was 4.58^[a].

Consider `Cc1ccc(CCNC(=O)c2cc(C3CC3)ncc2Oc2cccc(C3CC3)c2F)c(C)c1` [Compound I-243], for which the LogP is 5.32^[a].

In turn, `CC(=O)c1cc(C(=O)O)c(Oc2cccc(C(F)(F)F)c2)cn1` [Compound 1-011, 2-acetyl-5-[3-(trifluoromethyl)phenoxy]pyridine-4-carboxylic acid] yielded a chromatographic logP of 2.54.

Turning to `Cc1ccc(C(F)(F)CNC(=O)c2c(Oc3cccc(C4CC4)c3F)cnc(Cl)c2Cl)c(C)c1` [Compound I-153], the LogP is 5.08^[a].

With `Cc1ccc(CCNC(=O)c2cc(Cl)ncc2Oc2cccc3c2CCC3)c(C)c1` [Compound I-150], the LogP was 5.45^[a].

For the compound `CON=C(C)c1cc(C(=O)NCCc2ccc(C)cc2C)c(Oc2cccc(C(F)(F)F)c2)cn1` (mixture of isomers) [Compound I-251], the LogP was 5.36^[a].

As to `Cc1ccc(CCNC(=O)c2cc(N3CCCC3)ncc2Oc2cccc(C(F)(F)F)c2)c(C)c1` [Compound I-088], the LogP was 4.26^[a].

`Cc1cc(C(F)F)ccc1C(F)CNC(=O)c1cc(Cl)ncc1Oc1cccc(C(F)(F)F)c1` (racemic) [Compound I-080]: the LogP was 4.40^[a].

Regarding `Cc1ccc(C(F)CNC(=O)c2cc(C)ncc2Oc2cccc(C3CC3)c2F)c(Cl)c1` (racemic) [Compound I-076], the LogP was 4.49^[a].

For the compound `Cc1ccc(CCNC(=O)c2cc(Cl)ncc2Oc2ccc(F)c(Cl)c2)c(C)c1` [Compound I-154], the LogP is 4.72^[a].

As for `CSc1cccc(Oc2cnc(Cl)cc2C(=O)NCCc2ccc(C)cc2C)c1` [Compound I-248], the LogP was 4.76^[a].

In the case of `CCOc1cccc(Oc2cnc(Cl)cc2C(=O)NCCc2ccc(C)cc2C)c1` [Compound I-259], the LogP is 4.85^[a].

For `O=C(NCC(F)c1ccc(Cl)cc1Cl)c1cc(C2CC2)ncc1Oc1cccc(C(F)(F)F)c1` (centres unmarked) [Compound I-024], the LogP was 4.96^[a].

Consider `O=C(NCC(F)c1ccc(Cl)cc1Cl)c1cc(C2CC2)ncc1Oc1cccc(C2CC2)c1F` (racemic) [Compound I-074], for which the LogP is 5.32^[a].

With `COCCc1ccc(C(F)(F)CNC(=O)c2cc(CCOC)ncc2Oc2cccc(C(F)F)c2)c(Cl)c1` [Compound I-267], the LogP was 3.74^[a].

These data come from patent US12552748B2, “Pyridine (thio)amides as fungicidal compounds” (Bayer Aktiengesellschaft, priority 2020, dated 2026).
